For experiment [1], the target named is Bcl-xL (Homo sapiens, UniProt Q07817). The experiment is described as follows: Bcl-xL binding affinity analysis (fluorescence polarization binding assay). More on the design: scale not given here. From the text: (§1) Bcl-2 and Bcl-xL binding can be determined using a variety of known methods. One such assay is a sensitive and quantitative in vitro binding assay using fluorescence polarization (FP) described by Wang, J. -L.; Zhang, Z -J.; Choksi, S.; Sjam. S.; Lu, Z.; Croce, C. M.; Alnenri, E. S.; Komgold, R.; Huang, Z. Cell permeable Bcl-2 binding peptides: a chemical approach to apoptosis induction in tumor cells. Cancer Res. 2000, 60, 1498-1502).
(§2) Bcl-2 and Bcl-xL binding affinity analysis data is presented below for various compounds of the invention.
Background: Fluorescence polarisation rises when a labelled molecule tumbles more slowly, as on binding a larger partner.

For experiment [2], the target named is Bcl-2 (Homo sapiens, UniProt P10415). The experiment is described as follows: Bcl-2 binding affinity analysis (fluorescence polarization binding assay).
From the text: as §1, §2

pKi: −log10 of the molar value.

As usually defined, the pKi is the Ki on a negative log10 scale, so that one unit is a factor of ten.

Chain of Bcl-xL (Q07817 whole entry): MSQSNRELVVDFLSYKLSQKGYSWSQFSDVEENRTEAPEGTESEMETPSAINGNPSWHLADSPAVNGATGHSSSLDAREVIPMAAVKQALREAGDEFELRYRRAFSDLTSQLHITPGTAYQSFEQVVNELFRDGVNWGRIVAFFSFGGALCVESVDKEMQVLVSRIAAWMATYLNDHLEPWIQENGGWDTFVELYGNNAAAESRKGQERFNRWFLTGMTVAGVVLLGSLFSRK
Chain of Bcl-2 (P10415 whole entry): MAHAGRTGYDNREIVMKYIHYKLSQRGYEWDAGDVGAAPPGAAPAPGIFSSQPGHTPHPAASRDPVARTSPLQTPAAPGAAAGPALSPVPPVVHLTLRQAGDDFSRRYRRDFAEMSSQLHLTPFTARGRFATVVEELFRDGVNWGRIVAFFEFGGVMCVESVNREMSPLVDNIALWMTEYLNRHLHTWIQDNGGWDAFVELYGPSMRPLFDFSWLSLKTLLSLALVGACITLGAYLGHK

In the case of `C[C@@H]1[C@@H](NC(=O)[C@@H]2[C@H]([C@H](C)O)[C@H](CO)ON2Cc2cccc(-c3ccc4c(=O)n(C)n(C)c(=O)c4c3)c2)C[C@H]2C[C@@H]1C2(C)C` [Compound 133], in experiment [1], the “Bcl-XL binding affinity Ki” value is listed as “♯”. Besides, the negative-log Ki (pKi) in experiment [2] is greater than 6.10.

For `C[C@@H]1C(NC(=O)[C@@H]2[C@H]([C@H](C)O)[C@H](CO)ON2Cc2cccc(-c3ccc(NC(=O)N(C)C)cc3)c2)C[C@@H]2CC1C2(C)C` (some centres unmarked) [Compound 283], in experiment [1], the “Bcl-XL binding affinity Ki” value was “♯♯”. Also, the pKi in experiment [2] is greater than 6.10.

For the compound `CC(C)[C@H](CN(C)C)NC(=O)c1cccc(-c2cccc(CN3O[C@@H](CO)[C@@H]([C@H](C)O)[C@H]3C(=O)N[C@H]3C[C@H]4C[C@@H]([C@@H]3C)C4(C)C)c2)c1` [Compound 103], the “Bcl-XL binding affinity Ki” value in experiment [1] is on record as “♯”. In experiment [2], this compound gave a negative logarithm of the Ki (pKi) greater than 6.10.

Take `C[C@H](O)[C@@H]1[C@H](CO)ON(Cc2cccc(N3CCN(C(=O)OCc4ccccc4)CC3)c2)[C@@H]1C(=O)NC1C[C@H]2C[C@@H]([C@@H]1C)C2(C)C` (some centres unmarked) [Compound 253]: in experiment [1], the “Bcl-XL binding affinity Ki” value is “♯”. The compound also showed a pKi in experiment [2] greater than 6.10.

Regarding `C[C@@H]1[C@@H](NC(=O)[C@@H]2[C@H]([C@H](C)O)[C@H](CO)ON2Cc2cccc(-c3cccc(O)c3)c2)C[C@H]2C[C@@H]1C2(C)C` [Compound 147], the “Bcl-XL binding affinity Ki” value in experiment [1] is on record as “♯♯”. The pKi in experiment [2] was greater than 6.10.

With `C[C@@H]1C(NC(=O)[C@@H]2[C@H]([C@H](C)O)[C@H](CO)ON2Cc2cccc(-c3ccc(NC(=O)N(C)CCCN(C)C)cc3)c2)C[C@@H]2CC1C2(C)C` (some centres unmarked) [Compound 282], in experiment [1], the “Bcl-XL binding affinity Ki” value is given as “♯♯”. The compound further gave a pKi in experiment [2] greater than 6.10.

Consider `CC(C)CNC(=O)[C@@H]1[C@H]([C@H](C)O)[C@H](CO)ON1Cc1cccc(CN(Cc2ccccc2)[C@@H](CC(C)C)CN(C)C)c1` [Compound 540], for which the “Bcl-XL binding affinity Ki” value in experiment [1] is given as “♯”. This compound also gave a pKi in experiment [2] of 4.30 to 5.22.

Turning to `C[C@H](O)[C@@H]1[C@H](CO)ON(Cc2cccc(CN(CCN(C)C)Cc3ccccc3)c2)[C@@H]1C(=O)NCc1ccc(-c2ccccc2)cc1` [Compound 526], the “Bcl-XL binding affinity Ki” value in experiment [1] is “♯”. For the same compound, the pKi in experiment [2] was greater than 6.10.

Turning to `C[C@@H](O)[C@H]1[C@@H](CO)ON(Cc2cccc(C#CCN(C)Cc3ccccc3)c2)[C@H]1C(=O)NCCCN(C)c1ccccc1` [Compound 51], the “Bcl-XL binding affinity Ki” value in experiment [1] is “♯”. In experiment [2], this compound showed a negative-log Ki (pKi) of 5.22 to 6.10.

`COc1c(CN(CCN(C)C)Cc2ccccc2)cccc1CN1O[C@@H](CO)[C@@H]([C@H](C)O)[C@H]1C(=O)NC1C[C@H]2C[C@@H]([C@@H]1C)C2(C)C` (some centres unmarked) [Compound 197]: the “Bcl-XL binding affinity Ki” value in experiment [1] is given as “♯”. In experiment [2], this compound had a pKi greater than 6.10.

On to `CC(O)C1C(CO)ON(Cc2cccc(CN(CCN(C)C)C(C)(C)c3ccccc3)c2)C1C(=O)NC1CC2CC(C1C)C2(C)C` (centres unmarked) [Compound 475], for which the “Bcl-XL binding affinity Ki” value in experiment [1] is “♯”. The pKi in experiment [2] was greater than 6.10.

On to `C[C@H](O)[C@@H]1[C@H](CO)ON(Cc2cccc(CN(CCN(C)C)Cc3ccccc3)c2)[C@@H]1C(=O)NCCCc1ccccc1` [Compound 525], for which the “Bcl-XL binding affinity Ki” value in experiment [1] is given as “♯”. In experiment [2], the pKi is 4.30 to 5.22.

As to `C[C@@H]1[C@@H](NC(=O)[C@@H]2[C@H]([C@H](C)O)[C@H](CO)ON2Cc2cccc(-c3cccc(C(=O)NCCCNC(=O)OC(C)(C)C)c3)c2)C[C@H]2C[C@@H]1C2(C)C` [Compound 154], the “Bcl-XL binding affinity Ki” value in experiment [1] is reported as “♯♯”. Besides, in experiment [2], the negative logarithm of the Ki (pKi) is greater than 6.10.

Consider `C[C@@H]1[C@@H](NC(=O)[C@@H]2C([C@H](C)O)[C@H](CO)ON2Cc2cccc(C#CC(C)(O)c3ccccc3)c2)C[C@H]2C[C@@H]1C2(C)C` (some centres unmarked) [Compound 43], for which the “Bcl-XL binding affinity Ki” value in experiment [1] is listed as “♯♯”. In experiment [2], this compound showed a negative logarithm of the Ki (pKi) of 5.22 to 6.10.

As to `CC(O)C1C(CO)ON(Cc2cccc(CN(CCN(C)C)Cc3ccccc3-c3ccc(Cl)cc3)c2)C1C(=O)NC1CC2CC(C1C)C2(C)C` (centres unmarked) [Compound 409], the “Bcl-XL binding affinity Ki” value in experiment [1] is given as “♯”. For the same compound, in experiment [2], the pKi was greater than 6.10.

On to `CON(C)C(=O)c1ccc(-c2cccc(CN3O[C@@H](CO)[C@@H]([C@H](C)O)[C@H]3C(=O)N[C@H]3C[C@H]4C[C@@H]([C@@H]3C)C4(C)C)c2)cc1` [Compound 124], for which the “Bcl-XL binding affinity Ki” value in experiment [1] is reported as “♯”. The same compound showed a negative logarithm of the Ki (pKi) in experiment [2] greater than 6.10.

Regarding `C[C@H](O)[C@@H]1[C@H](CO)ON(Cc2cccc(-c3ccc(NCCN4CCOCC4)cc3)c2)[C@@H]1C(=O)NC1CC2C[C@@H]([C@@H]1C)C2(C)C` (some centres unmarked) [Compound 278], the “Bcl-XL binding affinity Ki” value in experiment [1] is “♯”. In experiment [2], this compound showed a pKi greater than 6.10.

On to `C[C@@H]1[C@@H](NC(=O)[C@@H]2[C@H]([C@H](C)O)[C@H](CO)ON2Cc2cccc(-c3cccc(C(=O)NC[C@@H]4CCCN4C)c3)c2)C[C@H]2C[C@@H]1C2(C)C` [Compound 104], for which the “Bcl-XL binding affinity Ki” value in experiment [1] is “♯”. Moreover, in experiment [2], the pKi was greater than 6.10.

Regarding `C[C@@H]1C(NC(=O)[C@@H]2[C@H]([C@H](C)O)[C@H](CO)ON2Cc2cccc(-c3ccc(NCCCN(C)C)cc3)c2)C[C@@H]2CC1C2(C)C` (some centres unmarked) [Compound 272], in experiment [1], the “Bcl-XL binding affinity Ki” value is reported as “♯”. This compound also showed a negative logarithm of the Ki (pKi) in experiment [2] greater than 6.10.

Turning to `C[C@@H]1[C@@H](NC(=O)[C@@H]2[C@H]([C@H](C)O)[C@H](CO)ON2Cc2cccc(-c3ccc(NS(C)(=O)=O)cc3)c2)C[C@H]2C[C@@H]1C2(C)C` [Compound 298], the “Bcl-XL binding affinity Ki” value in experiment [1] is “♯♯”. Moreover, in experiment [2], the pKi was greater than 6.10.

Regarding `C[C@@H]1[C@@H](NC(=O)[C@@H]2[C@H]([C@H](C)O)[C@H](CO)ON2Cc2cccc(-c3ccc4c(c3)C(=O)N(C)C4=O)c2)C[C@H]2C[C@@H]1C2(C)C` [Compound 128], the “Bcl-XL binding affinity Ki” value in experiment [1] is on record as “♯”. For the same compound, in experiment [2], the pKi is greater than 6.10.

For the compound `C[C@H](O)[C@@H]1[C@H](CO)ON(Cc2cccc(CN(CCN(C)C)Cc3ccccc3)c2)[C@@H]1C(=O)NC1CCN(Cc2ccccc2)CC1` [Compound 527], the “Bcl-XL binding affinity Ki” value in experiment [1] is “♯”. This compound showed a negative-log Ki (pKi) in experiment [2] of 4.30 to 5.22.

Regarding `C[C@@H](O)[C@@H]1C(C(=O)NCCCn2cnc3ccccc32)N(Cc2cccc(C#CCNC(=O)c3ccccc3)c2)O[C@@H]1CO` (some centres unmarked) [Compound 55], in experiment [1], the “Bcl-XL binding affinity Ki” value is listed as “♯♯”. This compound also had a pKi in experiment [2] of less than 4.30.

As to `C[C@@H]1[C@@H](NC(=O)[C@@H]2C([C@H](C)O)[C@H](CO)ON2Cc2cccc(CN(CCN(C)C)Cc3ccccc3-c3ccccc3F)c2)C[C@H]2C[C@@H]1C2(C)C` (some centres unmarked) [Compound 343], in experiment [1], the “Bcl-XL binding affinity Ki” value is listed as “♯”. Besides, the pKi in experiment [2] was greater than 6.10.

With `CC(O)C1C(CO)ON(Cc2cccc(CN3CC(c4ccccc4)CC3CN(C)C)c2)C1C(=O)NC1CC2CC(C1C)C2(C)C` (centres unmarked) [Compound 457], the “Bcl-XL binding affinity Ki” value in experiment [1] is given as “♯”. For the same compound, the negative-log Ki (pKi) in experiment [2] is greater than 6.10.

As to `C[C@@H](O)[C@H]1[C@@H](CO)ON(Cc2cccc(C#CCNC(=O)c3ccccc3)c2)[C@H]1C(=O)NCCCCc1ccccc1` [Compound 64], in experiment [1], the “Bcl-XL binding affinity Ki” value was “♯”. In addition, the pKi in experiment [2] was 5.22 to 6.10.

Take `C[C@@H]1[C@@H](NC(=O)[C@@H]2[C@H]([C@H](C)O)[C@H](CO)ON2Cc2cccc(N3CCN(C(=O)NCc4ccccc4)CC3)c2)C[C@H]2C[C@@H]1C2(C)C` [Compound 260]: in experiment [1], the “Bcl-XL binding affinity Ki” value is recorded as “♯”. In experiment [2], this compound showed a pKi greater than 6.10.

For `C[C@@H]1[C@@H](NC(=O)[C@@H]2[C@H]([C@H](C)O)[C@H](CO)ON2Cc2cccc(-c3ccc(C(=O)N(C)C)cc3[N+](=O)[O-])c2)C[C@H]2C[C@@H]1C2(C)C` [Compound 285], the “Bcl-XL binding affinity Ki” value in experiment [1] was “♯”. In experiment [2], this compound gave a pKi greater than 6.10.

Source of the values: patent publication US7851637B2, “Compounds and methods for inhibiting the interaction of BCL proteins with binding partners” (Infinity Pharmaceuticals, Inc., priority 2004, dated 2010).
